Data from patent US12686689B2, “HPK1 inhibitor, preparation method therefor and use thereof” (WIGEN BIOMEDICINE TECHNOLOGY (SHANGHAI) CO., LTD., priority 2020, dated 2026).

How the values were obtained:
HPK1 = HPK1 (Homo sapiens, UniProt Q92918); experiment: Inhibitory effect against enzyme activity of HPK1 (lantha Screen, PKC substrate); type: biochemical; conditions: class symbols defined as IC50 ranges, read-out: Inhibition rate (%)
Method: Example 130: Assay of Inhibitory Effect of Compound Against Enzyme Activity of HPK1
The inhibitory effect of the compound against the enzyme activity of HPK1 was determined by using a lantha Screen method with PKC as a substrate. The process comprises the following specific steps: the HPK1 protein was incubated with the serially-diluted compound at 28° C. for 10 min followed by addition of fluoroescein-labeled PKC substrate and ATP to react for 90 min. After termination of the reaction, a Terbium-labeled antibody against phosphorylated PKC was added and incubated for 60 min. The energy transfer of Teribium and fluoroscein was monitored by detecting luminescence at 520 nm and 450 nm to quantify PKC as the level of phosphorylation of […]. Inhibition % and IC50 of the compound were calculated compared to the control group.

hERG potassium channel = target: T1, hERG potassium channel (Homo sapiens, UniProt Q12809); experiment: Inhibitory effect against hERG channel activity (manual patch clamp, HEK293 cells stably expressing hERG); type: cell-based; conditions: HEK293 cell line stably expressing hERG
T1 construct: expressed in transfected cells; host or cells: HEK293
T1 sequence (Q12809 whole entry): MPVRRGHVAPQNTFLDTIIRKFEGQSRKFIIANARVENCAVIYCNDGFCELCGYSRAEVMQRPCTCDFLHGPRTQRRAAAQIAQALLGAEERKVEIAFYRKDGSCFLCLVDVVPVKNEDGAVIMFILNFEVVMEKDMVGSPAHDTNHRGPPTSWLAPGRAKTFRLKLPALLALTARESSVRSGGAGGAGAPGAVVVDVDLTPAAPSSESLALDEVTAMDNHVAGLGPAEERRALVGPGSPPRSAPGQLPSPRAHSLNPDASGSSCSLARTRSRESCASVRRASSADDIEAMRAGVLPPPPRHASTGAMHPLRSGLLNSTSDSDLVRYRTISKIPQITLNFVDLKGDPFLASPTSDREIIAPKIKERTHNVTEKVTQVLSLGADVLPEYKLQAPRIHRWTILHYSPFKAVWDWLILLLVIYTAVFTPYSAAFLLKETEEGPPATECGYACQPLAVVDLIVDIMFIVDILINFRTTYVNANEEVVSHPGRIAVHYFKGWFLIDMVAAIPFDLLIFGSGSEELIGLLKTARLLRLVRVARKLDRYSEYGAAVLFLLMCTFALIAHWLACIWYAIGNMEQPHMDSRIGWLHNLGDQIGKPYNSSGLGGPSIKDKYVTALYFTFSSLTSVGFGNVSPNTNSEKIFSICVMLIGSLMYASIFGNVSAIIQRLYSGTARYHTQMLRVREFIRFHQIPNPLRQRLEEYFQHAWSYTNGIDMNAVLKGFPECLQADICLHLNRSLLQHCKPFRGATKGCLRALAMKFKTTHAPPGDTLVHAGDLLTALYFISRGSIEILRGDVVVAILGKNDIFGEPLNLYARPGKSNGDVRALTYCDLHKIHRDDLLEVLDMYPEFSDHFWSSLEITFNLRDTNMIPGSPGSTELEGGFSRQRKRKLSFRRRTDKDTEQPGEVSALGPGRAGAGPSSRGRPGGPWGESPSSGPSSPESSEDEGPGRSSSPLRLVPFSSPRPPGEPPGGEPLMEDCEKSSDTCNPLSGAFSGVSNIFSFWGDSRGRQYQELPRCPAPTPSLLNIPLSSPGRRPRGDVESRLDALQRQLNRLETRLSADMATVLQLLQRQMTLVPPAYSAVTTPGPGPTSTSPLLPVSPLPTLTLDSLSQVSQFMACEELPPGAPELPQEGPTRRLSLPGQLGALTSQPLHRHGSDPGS
Method: Example 131: Assay of Inhibitory Effect of Compound Against hERG Channel Activity
The HEK293 cell line stably expressed by the hERG potassium channel was adopted for detection using manual patch clamp. Firstly, the HEK293 cell line stably expressed by the hERG potassium channel was separated and laid on a cover glass before the patch clamp detection test, and the test detection was carried out after culture for 18 h. Then a capillary glass tube was drawn into a recording electrode, and the recording electrode was contacted onto the cells under an inverted microscope to form a whole-cell recording mode. After necessary compensation and recording of the membrane capacitance and series resistance, current recording was performed according to the set current stimulation protocol. After the hERG current stabilized, administration was started and the current detected in compound-free extracellular fluid for each cell served as its own control group, and multiple cells were repeatedly tested independently. The current acted for each drug concentration and the current of the blank control were standardized, then the inhibition rate corresponding to each drug concentration was calculated, and finally the half-inhibition concentration IC50 value of each compound was calculated.

Chain of HPK1 (Q92918 whole entry): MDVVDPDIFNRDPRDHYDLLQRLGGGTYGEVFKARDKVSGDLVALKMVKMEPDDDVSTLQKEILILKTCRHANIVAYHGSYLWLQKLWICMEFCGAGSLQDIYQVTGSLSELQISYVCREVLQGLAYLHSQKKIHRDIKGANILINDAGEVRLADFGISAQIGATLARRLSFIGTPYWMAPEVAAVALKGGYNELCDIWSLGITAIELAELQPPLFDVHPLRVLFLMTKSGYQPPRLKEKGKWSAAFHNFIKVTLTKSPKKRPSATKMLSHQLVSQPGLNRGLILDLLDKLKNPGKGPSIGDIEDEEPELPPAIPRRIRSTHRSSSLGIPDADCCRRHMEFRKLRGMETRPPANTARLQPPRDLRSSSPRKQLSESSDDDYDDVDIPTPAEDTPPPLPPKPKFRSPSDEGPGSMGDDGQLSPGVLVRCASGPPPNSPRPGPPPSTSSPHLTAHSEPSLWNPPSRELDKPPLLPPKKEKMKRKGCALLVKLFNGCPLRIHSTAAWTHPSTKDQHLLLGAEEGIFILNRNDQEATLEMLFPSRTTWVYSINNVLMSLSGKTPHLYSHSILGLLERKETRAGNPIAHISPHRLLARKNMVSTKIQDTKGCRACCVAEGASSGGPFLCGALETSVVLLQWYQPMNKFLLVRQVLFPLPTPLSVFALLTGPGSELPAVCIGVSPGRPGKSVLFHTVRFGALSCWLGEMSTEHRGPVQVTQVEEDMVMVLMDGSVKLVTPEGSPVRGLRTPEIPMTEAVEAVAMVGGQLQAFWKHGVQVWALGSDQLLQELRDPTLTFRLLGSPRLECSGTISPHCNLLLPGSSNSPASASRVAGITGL

Row | Structure (SMILES) | IC50 (HPK1) | IC50 (hERG potassium channel)
1 | Cc1ccncc1-c1cc2c(-c3ccc4c(c3)OCC3CN(C)CCN43)n[nH]c2cc1C#N (centres unmarked) [Compound 43] | ≤ 10 nM | 17400 nM
2 | COc1cccc(F)c1-c1cc2c(-c3ccc4c(c3)OCC3CN(C)CCN43)n[nH]c2cc1C#N (centres unmarked) [Compound 6] | ≤ 10 nM | 17800 nM
3 | COc1ccc(F)c(F)c1-c1cc2c(-c3ccc4c(c3)OCC3CN(C)CCN43)n[nH]c2cn1 (centres unmarked) [Compound 73] | 10 to 100 nM | 41200 nM
4 | CN1CCN2c3ccc(-c4cnc5[nH]cc(-c6ccc(C(=O)N7CC(N(C)C)C7)cc6)c5n4)cc3OCC2C1 (centres unmarked) [Compound 112] | ≤ 10 nM | 35600 nM
5 | CNCc1cc(C)c(-c2ncc3[nH]cc(-c4ccc5c(c4)OCC4CN(C)CCN54)c3n2)c(F)c1 (centres unmarked) [Compound 95] | ≤ 10 nM | 
6 | COc1ccccc1-c1cc2c(-c3ccc4c(c3)OCC3CN(C)CCN43)n[nH]c2cc1C#N (centres unmarked) [Compound 2] | ≤ 10 nM | 
7 | CN1CCN2c3ccc(-c4n[nH]c5cnc(-c6cnn7ccccc67)cc45)cc3OCC2C1 (centres unmarked) [Compound 78] | ≤ 10 nM | 
8 | CNCc1cc(C)c(-c2ncc3[nH]nc(-c4ccc5c(c4)OCC4CN(C)CCN54)c3n2)c(F)c1 (centres unmarked) [Compound 80] | 10 to 100 nM | 
9 | CNCc1cc(C)c(-c2cc3c(-c4ccc5c(c4)OCC4CN(C6COC6)CCN54)n[nH]c3cc2C#N)c(F)c1 (centres unmarked) [Compound 126] | ≤ 10 nM | 
10 | CNCc1cc(C)c(-c2cc3c(-c4ccc5c(c4)OCC4CN(C6CCN(C)CC6)CCN54)n[nH]c3cc2C#N)c(F)c1 (centres unmarked) [Compound 127] | ≤ 10 nM | 
11 | CNCc1cc(C)c(-c2cc3c(-c4ccc5c(c4)OCC4CN(CC(F)(F)F)CCN54)n[nH]c3cc2C#N)c(F)c1 (centres unmarked) [Compound 128] | ≤ 10 nM | 
12 | CN1CCN2c3ccc(-c4n[nH]c5cc(C#N)c(-c6ccc7nccn7c6)cc45)cc3OCC2C1 (centres unmarked) [Compound 59] | ≤ 10 nM | 
13 | COc1cccc(F)c1-c1ncc2[nH]cc(-c3ccc4c(c3)OCC3CN(C)CCN43)c2n1 (centres unmarked) [Compound 94] | 10 to 100 nM | 
14 | CN1CCN2c3ccc(-c4n[nH]c5cc(C#N)c(-c6c(F)ccc7c6CCNC7)cc45)cc3OCC2C1 (centres unmarked) [Compound 37] | ≤ 10 nM | 
15 | Cc1cccc(F)c1-c1cc2c(-c3ccc4c(c3)OCC3CN(C)CCN43)n[nH]c2cn1 (centres unmarked) [Compound 65] | 10 to 100 nM | 
16 | CN1CCN2c3ccc(-c4n[nH]c5cc(C#N)c(-c6cccnc6)cc45)cc3OCC2C1 (centres unmarked) [Compound 41] | ≤ 10 nM | 
17 | CN1CCN2c3ccc(-c4cnc5[nH]cc(-c6ccc(C(=O)N7CC(N(C)C)C7)cc6)c5c4)cc3OCC2C1 (centres unmarked) [Compound 103] | ≤ 10 nM | 
18 | CN1CCN2c3ccc(-c4n[nH]c5cc(C#N)c(-c6c(F)cc(C7CCCCN7)cc6F)cc45)cc3OCC2C1 (centres unmarked) [Compound 23] | ≤ 10 nM | 
19 | CN1CCC(Oc2cc(F)c(-c3cc4c(-c5ccc6c(c5)OCC5CN(C)CCN65)n[nH]c4cc3C#N)c(F)c2)CC1 (centres unmarked) [Compound 33] | ≤ 10 nM | 
20 | COCc1cc(F)c(-c2cc3c(-c4ccc5c(c4)OCC4CN(C)CCN54)n[nH]c3cc2C#N)c(F)c1 (centres unmarked) [Compound 25] | ≤ 10 nM | 
21 | CNCc1cc(F)c(-c2ccc3[nH]nc(-c4ccc5c(c4)OCC4CN(C)CCN54)c3n2)c(F)c1 (centres unmarked) [Compound 87] | 10 to 100 nM | 

Row | Structure (SMILES) | IC50 (HPK1) | IC50 (hERG potassium channel)
22 | COc1cccc(F)c1-c1cc2c(-c3ccc4c(c3)OCC3CN(C)CCN43)n[nH]c2cn1 (centres unmarked) [Compound 64] | ≤ 10 nM | 
23 | CNCc1cc(F)c(-c2cc3c(-c4ccc5c(c4)OCC4CN(C)CCN54)n[nH]c3cc2C#N)c(OC)c1 (centres unmarked) [Compound 20] | ≤ 10 nM | 
24 | CN1CCN2c3ccc(-c4cnc5[nH]cc(-c6ccc(C(=O)N7CC(O)C7)cc6)c5n4)cc3OCC2C1 (centres unmarked) [Compound 113] | ≤ 10 nM | 
25 | CNCc1cc(C)c(-c2nc3c(-c4ccc5c(c4)OCC4CN(C)CCN54)n[nH]c3cc2C#N)c(F)c1 (centres unmarked) [Compound 83] | ≤ 10 nM | 
26 | CN1CCN2c3ccc(-c4cnc5[nH]cc(-c6ccc(C(=O)N7CC(O)C7)cc6)c5c4)cc3OCC2C1 (centres unmarked) [Compound 104] | 10 to 100 nM | 
27 | Cc1cncc(-c2cc3c(-c4ccc5c(c4)OCC4CN(C)CCN54)n[nH]c3cc2C#N)c1 (centres unmarked) [Compound 45] | ≤ 10 nM | 
28 | CNCc1cc(C)c(-c2nc3c(-c4ccc5c(c4)OCC4CN(C)CCN54)c[nH]c3cc2C#N)c(F)c1 (centres unmarked) [Compound 98] | ≤ 10 nM | 
29 | CN1CCN2c3ccc(-c4n[nH]c5cc(C#N)c(-c6cccc(P(C)(C)=O)c6F)cc45)cc3OCC2C1 (centres unmarked) [Compound 12] | ≤ 10 nM | 
30 | Cc1n[nH]cc1-c1cc2c(-c3ccc4c(c3)OCC3CN(C)CCN43)n[nH]c2cn1 (centres unmarked) [Compound 72] | ≤ 10 nM | 
31 | CNCc1cc(C)c(-c2cc3c(-c4ccc5c(c4)NCC4CN(C)CCN54)n[nH]c3cc2C#N)c(F)c1 (centres unmarked) [Compound 121] | ≤ 10 nM | 
32 | CN(C)CCCOc1ccc(-c2c[nH]c3ncc(-c4ccc5c(c4)OCC4CN(C)CCN54)cc23)cc1 (centres unmarked) [Compound 110] | ≤ 10 nM | 
33 | CN1CCN2c3ccc(-c4n[nH]c5cc(C#N)c(-c6cnn7cccnc67)cc45)cc3OCC2C1 (centres unmarked) [Compound 63] | ≤ 10 nM | 
34 | CN1CCN2c3ccc(-c4n[nH]c5cc(C#N)c(-c6c(F)cc(C7CCCC7N)cc6F)cc45)cc3OCC2C1 (centres unmarked) [Compound 26] | ≤ 10 nM | 
35 | CNCc1cc(C)c(-c2ccc3[nH]nc(-c4ccc5c(c4)OCC4CN(C)CCN54)c3n2)c(F)c1 (centres unmarked) [Compound 86] | 10 to 100 nM | 
36 | COc1ccncc1-c1cc2c(-c3ccc4c(c3)OCC3CN(C)CCN43)n[nH]c2cc1C#N (centres unmarked) [Compound 44] | ≤ 10 nM | 
37 | CN1CCN2c3ccc(-c4cnc5[nH]nc(-c6ccc(C(=O)N7CC(N(C)C)C7)cc6)c5n4)cc3OCC2C1 (centres unmarked) [Compound 118] | ≤ 10 nM | 
38 | CN(C)CCN(C)C(=O)c1ccc(-c2n[nH]c3ncc(-c4ccc5c(c4)OCC4CN(C)CCN54)cc23)cc1 (centres unmarked) [Compound 117] | ≤ 10 nM | 
39 | CNCc1cc(C)c(-c2cc3c(-c4ccc5c(c4)OCC4CN(C)CCN54)n[nH]c3cc2C#N)c(F)c1 (centres unmarked) [Compound 17] | ≤ 10 nM | 
40 | CN1CCN2c3ccc(-c4n[nH]c5cc(C#N)c(-c6ncccc6F)cc45)cc3OCC2C1 (centres unmarked) [Compound 42] | ≤ 10 nM | 
41 | CN1CCN2c3ccc(-c4n[nH]c5cnc(-c6cccn7ccnc67)cc45)cc3OCC2C1 (centres unmarked) [Compound 77] | ≤ 10 nM | 
42 | CN1CCN2c3ccc(-c4n[nH]c5cc(C#N)c(-c6c(F)cc(C7CCCN7)cc6F)cc45)cc3OCC2C1 (centres unmarked) [Compound 22] | ≤ 10 nM | 

Row | Structure (SMILES) | IC50 (HPK1) | IC50 (hERG potassium channel)
43 | COc1cccc(F)c1-c1ccc2[nH]nc(-c3ccc4c(c3)OCC3CN(C)CCN43)c2n1 (centres unmarked) [Compound 85] | 10 to 100 nM | 
44 | CNCc1cc(C)c(-c2cc3c(-c4ccc5c(c4)OCC4CN(C)CCN54)n[nH]c3cn2)c(F)c1 (centres unmarked) [Compound 69] | ≤ 10 nM | 
45 | Cc1ccncc1-c1cc2c(-c3ccc4c(c3)OCC3CN(C)CCN43)n[nH]c2cn1 (centres unmarked) [Compound 70] | ≤ 10 nM | 
46 | CN1CCN2c3ccc(-c4n[nH]c5cc(C#N)c(-c6cnc7cnn(C)c7c6)cc45)cc3OCC2C1 (centres unmarked) [Compound 51] | ≤ 10 nM | 
47 | CNCc1cc(F)c(-c2ccc3[nH]cc(-c4ccc5c(c4)OCC4CN(C)CCN54)c3n2)c(F)c1 (centres unmarked) [Compound 102] | ≤ 10 nM | 
48 | CNCc1cc(C)c(-c2cc3c(-c4ccc5c(c4)OCC4CNCCN54)n[nH]c3cc2C#N)c(F)c1 (centres unmarked) [Compound 123] | ≤ 10 nM | 
49 | Cc1n[nH]cc1-c1cc2c(-c3ccc4c(c3)OCC3CN(C)CCN43)n[nH]c2cc1C#N (centres unmarked) [Compound 47] | ≤ 10 nM | 
50 | COc1cccc(F)c1-c1cc2c(-c3ccc4c(c3)OCC3CN(C)CCN43)c[nH]c2cn1 (centres unmarked) [Compound 88] | ≤ 10 nM | 
51 | CNCc1cc(F)c(-c2ncc3[nH]cc(-c4ccc5c(c4)OCC4CN(C)CCN54)c3n2)c(F)c1 (centres unmarked) [Compound 96] | 10 to 100 nM | 
52 | CN1CCN2c3ccc(-c4n[nH]c5cc(C#N)c(-c6cccc(F)c6F)cc45)cc3OCC2C1 (centres unmarked) [Compound 7] | ≥ 100 nM | 
53 | CCN1CCN2c3ccc(-c4n[nH]c5cc(C#N)c(-c6c(C)cc(CNC)cc6F)cc45)cc3OCC2C1 (centres unmarked) [Compound 124] | ≤ 10 nM | 
54 | CN1CCN2c3ccc(-c4cnc5[nH]nc(-c6ccc(C(=O)N7CC(N(C)C)C7)cc6)c5c4)cc3OCC2C1 (centres unmarked) [Compound 115] | ≤ 10 nM | 
55 | CN1CCN2c3ccc(-c4n[nH]c5cc(C#N)c(-c6c(F)cc(NC(=O)CN7CC8(COC8)C7)cc6F)cc45)cc3OCC2C1 (centres unmarked) [Compound 29] | ≤ 10 nM | 
56 | CN1CCN2c3ccc(-c4n[nH]c5cc(C#N)c(-c6cccc7[nH]ncc67)cc45)cc3OCC2C1 (centres unmarked) [Compound 50] | ≤ 10 nM | 
57 | CNCc1cc(C)c(-c2cc3c(-c4ccc5c(c4)N(C)CC4CN(C)CCN54)n[nH]c3cc2C#N)c(F)c1 (centres unmarked) [Compound 122] | ≤ 10 nM | 
58 | Cc1ccc(F)c(F)c1-c1cc2c(-c3ccc4c(c3)OCC3CN(C)CCN43)n[nH]c2cc1C#N (centres unmarked) [Compound 15] | ≤ 10 nM | 
59 | CN1CCN2c3ccc(-c4n[nH]c5cc(C#N)c(-c6cnn7ccccc67)cc45)cc3OCC2C1 (centres unmarked) [Compound 62] | 10 to 100 nM | 
60 | CN1CCN2c3ccc(-c4n[nH]c5cc(C#N)c(-c6cccc(S(C)(=O)=O)c6F)cc45)cc3OCC2C1 (centres unmarked) [Compound 13] | ≥ 100 nM | 
61 | COc1cccc(F)c1-c1ncc2[nH]nc(-c3ccc4c(c3)OCC3CN(C)CCN43)c2n1 (centres unmarked) [Compound 79] | 10 to 100 nM | 
